These results are taken from ChEMBL document CHEMBL1156891, “Pyrrolidine amides of pyrazolodihydropyrimidines as potent and selective KV1.5 blockers” (Bioorg Med Chem Lett, 2010).

Data set [1] has as its target Potassium voltage-gated channel subfamily A member 5 (Homo sapiens, UniProt P22460). The experiment in a line: Inhibition of human Kv1.5 channel expressed in mouse L929 cells. The format is cell-based. Particulars: for inhibition: concentration not given here.
Data set [2] relates to Oryctolagus cuniculus. The experiment in a line: Prolongation of atrial effective refractory period in rabbit at 0.3 mg/kg, iv relative to vehicle control. The format is functional, Cardiac atrium.
The test system of data set [3] is Oryctolagus cuniculus. The experiment in a line: Prolongation of atrial effective refractory period in rabbit at 1 mg/kg, iv relative to vehicle control. The format is functional, Cardiac atrium.
The subject of data set [4] is Oryctolagus cuniculus. The experiment in a line: Prolongation of atrial effective refractory period in rabbit at 3 mg/kg, iv relative to vehicle control. The format is functional, Cardiac atrium.
For data set [5], the system named is Oryctolagus cuniculus. Put plainly: Prolongation of atrial effective refractory period in rabbit at 10 mg/kg, iv relative to vehicle control. The format is functional, Cardiac atrium.
Data set [6] deals with Oryctolagus cuniculus. Put plainly: Plasma concentration in rabbit at 10 mg/kg, iv. The format is ADME, organism-based. Further details: dose 10 mg/kg, route intravenous. Conditions: in vivo.
Data set [7] is described as follows: Fraction unbound in rabbit plasma at 10 mg/kg, iv. Details: dose 10 mg/kg, route intravenous. The format is ADME, organism-based, Oryctolagus cuniculus.
A short description of data set [8]: Oral bioavailability in rat at 20 µmol/kg, po. Particulars: in vivo.
A short description of data set [9]: Oral bioavailability in dog at 20 µmol/kg, po. Particulars: in vivo.
Data set [10] is described as follows: Clearance in rat at 10 µmol/kg, intra-arterial infusion. Particulars: in vivo.
The nature of data set [11]: Clearance in dog at 10 µmol/kg, intra-arterial infusion. Particulars: in vivo.
A short description of data set [12]: Terminal half life in rat at 10 µmol/kg, intra-arterial infusion. Particulars: in vivo, read-out: beta t1/2 (converted).
Data set [13] in a line: Terminal half life in dog at 10 µmol/kg, intra-arterial infusion. Particulars: in vivo, read-out: beta t1/2 (converted).
Data set [14] in a line: Volume of distribution at steady state in rat at 10 µmol/kg, intra-arterial infusion. Conditions: in vivo, read-out: Vdss.
Data set [15] is described as follows: Volume of distribution at steady state in dog at 10 µmol/kg, intra-arterial infusion. Particulars: in vivo, read-out: Vdss.

Sequence of Potassium voltage-gated channel subfamily A member 5 (P22460 whole entry): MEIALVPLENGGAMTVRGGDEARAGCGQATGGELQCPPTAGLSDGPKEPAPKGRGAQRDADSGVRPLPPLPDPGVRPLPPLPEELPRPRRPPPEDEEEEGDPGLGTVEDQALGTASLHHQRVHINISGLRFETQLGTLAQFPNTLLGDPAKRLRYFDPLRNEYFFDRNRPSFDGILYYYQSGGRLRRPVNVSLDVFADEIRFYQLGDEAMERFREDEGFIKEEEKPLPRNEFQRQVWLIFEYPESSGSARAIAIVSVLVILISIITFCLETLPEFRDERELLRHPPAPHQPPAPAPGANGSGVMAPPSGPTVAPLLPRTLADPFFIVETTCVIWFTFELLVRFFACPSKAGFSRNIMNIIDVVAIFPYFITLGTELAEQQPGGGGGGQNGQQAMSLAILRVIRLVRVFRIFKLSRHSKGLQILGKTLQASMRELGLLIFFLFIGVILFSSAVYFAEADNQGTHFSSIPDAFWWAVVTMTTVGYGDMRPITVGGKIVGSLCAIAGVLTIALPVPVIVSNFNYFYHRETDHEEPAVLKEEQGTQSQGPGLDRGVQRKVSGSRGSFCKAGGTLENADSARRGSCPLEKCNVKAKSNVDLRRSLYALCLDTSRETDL

Regarding `COC[C@H]1CCCN1C(=O)C1=C(C)Nc2ccnn2C1c1ccc(Cl)c(Cl)c1` (some centres undefined), in [1], the IC50 (in general, the concentration that inhibits the measured activity by half) is greater than 1000 nM and the inhibition (as a rule, how much of the control response was suppressed) turned out to be 32%.

In data set [1], `CC1=C(C(=O)N2CCC[C@H]2c2nnn(C)n2)C(c2ccc(Cl)c(Cl)c2)n2nccc2N1` (some centres undefined) came in with an IC50 of 480 nM.

In [1], `CC1=C(C(=O)N2CCCC2c2ccncc2)C(c2ccc(Cl)c(Cl)c2)n2nccc2N1` (centres undefined) showed an IC50 of 310 nM.

On to `CC1=C(C(=O)N2CCCC2c2cccnc2)C(c2ccc(Cl)c(Cl)c2)n2nccc2N1` (centres undefined), for which, in [1], the IC50 is greater than 1000 nM and the inhibition was determined as 35%.

In [1], `CC1=C(C(=O)N2CCCC2c2ccccn2)C(c2ccc(Cl)c(Cl)c2)n2nccc2N1` (centres undefined) gave an IC50 of 660 nM.

As to `CC1=C(C(=O)N2CCC(c3ccc(F)cc3)C2)C(c2ccc(Cl)c(Cl)c2)n2nccc2N1` (centres undefined), in data set [1], the midpoint of inhibition, the IC50, lay at 160 nM.

In [1], `CC1=C(C(=O)N2CCC[C@H]2c2nnc(N)s2)C(c2ccc(Cl)c(Cl)c2)n2nccc2N1` (some centres undefined) displayed a 50% inhibitory concentration (IC50) greater than 1000 nM and an inhibition of 4%.

Regarding `COC(=O)[C@@H]1CCCN1C(=O)C1=C(C)Nc2ccnn2C1c1ccc(Cl)c(Cl)c1` (some centres undefined), in [1], the IC50 was 150 nM.

In data set [1], `CC1=C(C(=O)N2CCC[C@H]2c2n[nH]c(=O)n2C)C(c2ccc(Cl)c(Cl)c2)n2nccc2N1` (some centres undefined) returned a concentration for half-maximal inhibition (IC50) greater than 1000 nM and an inhibition of 11%.

On to `CC1=C(C(=O)N2CCCC2c2ccccc2)C(c2ccc(Cl)c(Cl)c2)n2nccc2N1` (centres undefined), for which the IC50 in [1] was determined as 150 nM.

In data set [1], `CC1=C(C(=O)N2CCC[C@H]2c2nc(C)c(C)s2)C(c2ccc(Cl)c(Cl)c2)n2nccc2N1` (some centres undefined) displayed an IC50 of 300 nM.

`CC1=C(C(=O)N2CCCC2c2ccc(F)cc2)C(c2ccc(Cl)c(Cl)c2)n2nccc2N1` (mixture of isomers; 7) came in with an IC50 in [1] of 70 nM.

In the case of `CC1=C(C(=O)N2CCCC2c2ccc(F)cc2)C(c2ccc(Cl)c(Cl)c2)n2nccc2N1` (mixture of isomers; 7a), in data set [1], the concentration for half-maximal inhibition (IC50) was determined as 2100 nM.

For the compound `CC1=C(C(=O)N2CCCC2c2ccc(F)cc2)C(c2ccc(Cl)c(Cl)c2)n2nccc2N1` (mixture of isomers; 7b), half-maximal inhibition in [1] (IC50) was put at 1800 nM.

As to `CC1=C(C(=O)N2CCCC2c2ccc(F)cc2)C(c2ccc(Cl)c(Cl)c2)n2nccc2N1` (mixture of isomers; 7c), the IC50 in data set [1] came to 150 nM.

For `CC1=C(C(=O)N2CCC[C@H]2c2nc(C)no2)C(c2ccc(Cl)c(Cl)c2)n2nccc2N1` (stereo in doubt; 13a) [listing 1 of 2 here], the half-inhibitory concentration (IC50) in [1] was greater than 1000 nM.

As to `CC1=C(C(=O)N2CCC[C@H]2c2nc(C)no2)C(c2ccc(Cl)c(Cl)c2)n2nccc2N1` (stereo in doubt; 13a) [listing 2 of 2 here], the inhibition in [1] worked out at 22%.

Turning to `CC1=C(C(=O)N2CCC[C@H]2c2nc(C)no2)C(c2ccc(Cl)c(Cl)c2)n2nccc2N1` (stereo in doubt; 13b), the midpoint of inhibition in [1], the IC50, lay at 160 nM.

Compound `CC1=C(C(=O)N2CCC[C@H]2c2nnn[nH]2)C(c2ccc(Cl)c(Cl)c2)n2nccc2N1` (stereo in doubt; 14a) [listing 1 of 2 here] had an IC50 in [1] greater than 1000 nM.

In the case of `CC1=C(C(=O)N2CCC[C@H]2c2nnn[nH]2)C(c2ccc(Cl)c(Cl)c2)n2nccc2N1` (stereo in doubt; 14a) [listing 2 of 2 here], in data set [1], the inhibition came out at 4%.

Take `CC1=C(C(=O)N2CCC[C@H]2c2nnn[nH]2)C(c2ccc(Cl)c(Cl)c2)n2nccc2N1` (stereo in doubt; 14b): the inhibition in data set [1] amounted to 8%.

As to `CC1=C(C(=O)N2CCC[C@H]2c2nnc[nH]2)C(c2ccc(Cl)c(Cl)c2)n2nccc2N1` (stereo in doubt; 17a) [listing 1 of 2 here], the IC50 in data set [1] was greater than 1000 nM.

In data set [1], `CC1=C(C(=O)N2CCC[C@H]2c2nnc[nH]2)C(c2ccc(Cl)c(Cl)c2)n2nccc2N1` (stereo in doubt; 17a) [listing 2 of 2 here] registered an inhibition of 19%.

On to `CC1=C(C(=O)N2CCC[C@H]2c2nnc[nH]2)C(c2ccc(Cl)c(Cl)c2)n2nccc2N1` (stereo in doubt; 17b), for which, in [1], the inhibition came out at 3%.

Take `CC1=C(C(=O)N2CCC[C@H]2c2cc(C)no2)C(c2ccc(Cl)c(Cl)c2)n2nccc2N1` (stereo in doubt; 20a) [listing 1 of 2 here]: the IC50 in data set [1] is greater than 1000 nM.

In turn, `CC1=C(C(=O)N2CCC[C@H]2c2cc(C)no2)C(c2ccc(Cl)c(Cl)c2)n2nccc2N1` (stereo in doubt; 20a) [listing 2 of 2 here] displayed an inhibition in [1] of 21%.

For `CC1=C(C(=O)N2CCC[C@H]2c2cc(C)no2)C(c2ccc(Cl)c(Cl)c2)n2nccc2N1` (stereo in doubt; 20b), it took 110 nM to reach half-maximal inhibition in data set [1] (IC50).

As to `CC1=C(C(=O)N2CCC[C@H]2c2cc(C)on2)C(c2ccc(Cl)c(Cl)c2)n2nccc2N1` (stereo in doubt; 21a) [listing 1 of 2 here], the IC50 in [1] was greater than 1000 nM.

`CC1=C(C(=O)N2CCC[C@H]2c2cc(C)on2)C(c2ccc(Cl)c(Cl)c2)n2nccc2N1` (stereo in doubt; 21a) [listing 2 of 2 here] displayed an inhibition in data set [1] of 38%.

In the case of `CC1=C(C(=O)N2CCC[C@H]2c2cc(C)on2)C(c2ccc(Cl)c(Cl)c2)n2nccc2N1` (stereo in doubt; 21b), the half-inhibitory concentration (IC50) in data set [1] stood at 90 nM.

In data set [1], `CC1=C(C(=O)N2CCC[C@H]2c2ccc(F)cc2)[C@@H](c2ccc(Cl)c(Cl)c2)n2nccc2N1` [BMS-394136] registered an IC50 of 50 nM. Further, the Activity is reported as 0.13% in the data set with Oryctolagus cuniculus [2], 0.37% with Oryctolagus cuniculus [3], 1.37% with Oryctolagus cuniculus [4] and 6.95% in the data set on Oryctolagus cuniculus [5]. For the same compound, in the data set on Oryctolagus cuniculus [6], the concentration is 7 µM. Moreover, the fraction unbound (commonly free concentration divided by total concentration) in data set [7] was determined as 0.03. Also, the bioavailability – broadly, the share of a dose that reaches the circulation, judged against a reference dose that is usually intravenous – came to 51% in data set [8] and 37% in data set [9]. Also, the clearance (usually the rate of elimination divided by the concentration) was determined as 35 mL/min/kg in data set [10] and 42 mL/min/kg in [11]. Also, the half-life in [12] was 0.57 h; in [13], 1.5 h. For the same compound, the Vd was 1.6 L/kg in [14] and 2.1 L/kg in data set [15].
